Reference: patent US6869956B2, “Methods of treating inflammatory and immune diseases using inhibitors of IκB kinase (IKK)” (Bristol-Myers Squibb Company, priority 2000, dated 2005)

What was measured:
Pharmacokinetics in mice = assay type: in vivo; settings: mouse, plasma, BALB/c mice
Procedure: Compound 6 was administered to BALB/c mice either per orally (p.o.) or intravenously (i.v.). Blood was drawn at various times (0.5 to 4 hours) after dosing and the plasma drug levels measured by liquid chromatography-mass spectral analysis.

[1] = test system: transplanted hearts (graft rejection); test: Murine neonatal heart to ear transplants, graft survival; assay type: in vivo, BALB/c mice
Procedure: Cardiac transplants were performed as described by Fulmer et al. (Fulmer, R. I. et al. The American Journal of Anatomy 113:273-281, 1963). Neonatal hearts were obtained from newborn C57BL/6 mice not more than 48 hours after birth. The hearts were transplanted into recipient BALB/c mice, which were prepared under anesthesia by making a small incision at the base of the ear pinna and forming a pocket by gently lifting the skin away from the ear. The incision permitted the insertion of the donor heart subcutaneously into the pocket. […] The pulsations of the heart were measured by contractile activity with an appropriate electrocardiogram (ECG) monitoring device. The contractile activity of the transplanted graft was monitored daily. The time of graft rejection was defined as the day after transplantation on which contractile activity ceased. Without therapeutic intervention, the host mounts an immune response to the transplanted heart (i.e., graft rejection). This immune response causes the transplanted heart to cease beating typically 10-14 days post transplantation.
Test compounds were administered in daily doses either alone or in combination with other therapies, such as Cyclosporine A (15 mg/kg, orally, “p.o.”) or CTLA4-Ig (200 μg in 200 μl PBS given intraperitoneally on only days 0, 2, and 4). Table 2 presents the effects of test compounds on median survival time of transplanted hearts, either alone or in combination with Cyclosporine A (CsA). Table 3 presents the effects of test compounds on median survival time of transplanted hearts, either alone or in combination with CTLA4-Ig.

[2] = test system: collagen-induced arthritis; test: Murine model of collagen-induced arthritis; assay type: in vivo, DBA/1 LacJ male mice; set-up: Cumulative arthritis injury score (±sem): scale not given here
Procedure: DBA/1 LacJ male mice 6-8 wk (Jackson Laboratories; Bar Harbor, Me.) were immunized subcutaneously on day 0 and on day 21 with 100 μg bovine type 11 collagen in 0.1 mL RIBI Adjuvant System (RAS) with monophosphoryl lipid A(RIBI lmmunoChem Research; Hamilton, Mont.). In this model, disease onset occurs within one week after the second collagen injection.
When treated in a preventative mode, test compounds were administered daily beginning on day 0 through day 41.
In the established (i.e. therapeutic) mode, the administration of test compounds was initiated only after paw inflammation of an animal had achieved a score of 2 (as defined below), at which time, the animal was randomly assigned to a treatment group. Treatment continued daily for all four paws as described below.
Following the Day 21 booster, mice were regularly monitored for the development and severity of paw inflammation.
Clinical paw scores for all four paws were summed for each mouse and the mean ± standard deviation (SD) was calculated for each treatment group.
Histological scoring involved evaluating histologically and grading semi-quantitatively tibiotarsal joints of sacrificed mice, specifically examining the severity of inflammation, synovial hyperplasia, bone resorption, and cartilage erosion. Cumulative arthritis injury scores for each group were compared by the nonparametric Kruskal-Wallis analysis of variance.

DSS-induced colitis = test: Dextran sulfate sodium-induced murine model of inflammatory bowel disease; assay type: in vivo, Swiss-Webster mice; settings: for Mean clinical score: colon, scale 0-3
Procedure: In this model, Swiss-Webster mice (8 weeks old, 5 animals per treatment group) were given 6% DSS in their drinking water for 7 consecutive days to induce intestinal inflammation. Test compounds were administered daily throughout the study. On day 9, animals were sacrificed and the colons were removed for clinical and histological evaluation.
Clinical scoring was determined by the gross clinical evaluation of the injury on a scale from 0 (normal) to 3 (severe) as detailed in Table 7.
For histological scoring, colon sections were graded as to the severity of crypt injury and the degree of inflammation. The crypt injury was scored as detailed in Table 8, wherein the crypt is part of the glandular make-up of the colon.
Tissue involvement was scored as detailed in Table 9. Any signs of crypt injury or inflammation, regardless of severity, constitute tissue involvement.
The injury histological score is defined as the product of the crypt injury grade and the tissue involvement grade. The scoring of severity of inflammation is detailed in Table 10.
The inflammation histological score is the product of the severity of inflammation grade and the extent of tissue involvement grade. Crypt injury and inflammatory scoring were performed on each colon section and a mean score and standard error were determined for each section. Cumulative crypt injury and inflammatory scores for each group were determined. The results of Table 12 present the cumulative injury and inflammation scores of colons in mice with DSS-induced colitis.

[3] = test system: ovalbumin-induced inflammatory cell infiltration in the lung; test: Ovalbumin-induced inflammatory cell infiltration into the lung of sensitized mice; assay type: in vivo, BALB/c mice; settings: for Total Inflammatory Cells in BAL: days 14 to 17, BAL on day 18
Procedure: In the pulmonary inflammation animal model, BALB/c mice were sensitized by an intraperitoneal injection of 0.1 mL alum-precipitated antigen containing 40 μg ovalbumin adsorbed to aluminum hydroxide gel on days 0 and 10. On day 14, animals received intranasal challenge with 100 μg ovalbumin in 50 μl saline (PBS). Mice were injected intraperitoneally with antigen to sensitize the animals prior to intranasal challenge to induce lung inflammation. Administration of the test compound was given on days 14 to 17. On day 18, bronchoalveolar lavage fluid (BAL) was collected for measurements of total inflammatory cell infiltration (eosinophils, monocytes, lymphocytes, and neutrophils).

[4] = test system: TNFα production in THP-1 cells; test: TNFα production assay in LPS-stimulated THP-1 cells; assay type: cell-based; settings: Homo sapiens, 6 hours, ELISA, read-out: IC50 in TNF-α production assay
Procedure: THP-1 (human monocytic cell line) obtained from ATCC was cultured in RPMI-1640 supplemented with 10% FBS, sodium pyruvate, HEPES, 2-mercaptoethanol, Penicillin/Streptomycin. To a 96-well plate containing THP-1 cells (1.4×10^6/mL, 2.5×10^5 cells/well) in 180 μL RPMI-1640 was added 20 μL of the test compound in 10% DMSO. […] After one hour at 37° C., 20 μL of 1000 ng/mL lipopolysaccharide (LPS from Salmonella typhosa, Sigma) was added to each well. After an additional 6 hours at 37° C., the supernatants were collected following a 5 minute centrifugation of the plate to pellet the cells. The amount of TNFα in these supernatants was then measured using a TNFα-specific ELISA (Pharmingen). […] IC50 values were calculated from the percentage inhibition at various doses.

LPS-induced serum TNFα = LPS-induced serum TNFα in mice; assay type: in vivo, BALB/c mice; settings: p.o.
Procedure: As a measure of activity against NF-κB-dependent TNFα production in vivo, test compounds were administered to BALB/c mice subsequently challenged with an intravenous dose of E. coli LPS (1 μg in 100 μL phosphate-buffered saline). One hour after LPS challenge, blood was collected from the mice and the levels of TNFα in the serum measured by EIA(R&D Systems). Inhibition was calculated from control animals which received LPS challenge with no test compound.

Cc1ccc2nc(NCCN)c3ncc(C)n3c2c1 [Compound 6, 4(2′-aminoethyl)amino-1,8-dimethylimidazo(1,2-a)quinoxaline]
half-life (Pharmacokinetics in mice; iv, apparent terminal elimination phase after i.v. dose): 7.9 h
bioavailability (Pharmacokinetics in mice; oral, AUC p.o. divided by AUC i.v.): 100%
Median Graft Survival Time ([1]; CTLA4-Ig (200 μg i.p. days 0, 2, 4) plus Compound 6 50 mg/kg p.o.): 32 days
Median Graft Survival Time ([1]; CTLA4-Ig (200 μg i.p. days 0, 2, 4) plus Compound 6 100 mg/kg p.o.): >60 days
Median Graft Survival Time ([1]; Compound 6 50 mg/kg p.o. alone): 12 days
Median Graft Survival Time ([1]; Cyclosporine A 15 mg/kg p.o. plus Compound 6 50 mg/kg p.o.): 29 days
effect of combination with cyclosporine A or CTLA4-Ig on graft survival ([1]; co-administered with cyclosporine A or CTLA4-Ig): synergistic effects
Cumulative arthritis injury score (±sem) ([2]; established mode, 10 mg/kg, two weeks after disease onset): 4.2 ± 1.0
disease progression ([2]; established mode, 30 mg/kg p.o., vs vehicle): significantly inhibited disease progression
Cumulative arthritis injury score (±sem) ([2]; established mode, 30 mg/kg, two weeks after disease onset): 2.1 ± 0.9
disease progression ([2]; established mode, 100 mg/kg p.o.): significant disease resolution
Cumulative arthritis injury score (±sem) ([2]; established mode, 100 mg/kg, two weeks after disease onset): 0.9 ± 0.5
Cumulative arthritis injury score (±sem) ([2]; preventative mode, 10 mg/kg): 5.3 ± 1.7
Cumulative arthritis injury score (±sem) ([2]; preventative mode, 30 mg/kg): 0.4 ± 0.4
disease onset ([2]; preventative mode, 30 mg/kg p.o. daily): inhibited disease onset
Cumulative arthritis injury score (±sem) ([2]; preventative mode, 30 mg/kg, listed as compound 6, 30 mg/kg): 0.4
Cumulative arthritis injury score (±sem) ([2]; preventative mode, 100 mg/kg): 0.0
incidence of disease (FIG. 1) ([2]; preventative mode, 100 mg/kg daily, vs vehicle): significant difference in incidence of disease
disease onset ([2]; preventative mode, 100 mg/kg p.o. daily): prevented any disease onset
Cumulative arthritis injury score (±sem) ([2]; preventative mode, 100 mg/kg, listed as compound 6, 100 mg/kg): 0
Group Mean Inflammation Histological Score (DSS-induced colitis; 30 mg/kg p.o. daily): 7.58 ± 0.81
Group Mean Injury Histological Score (DSS-induced colitis; 30 mg/kg p.o. daily): 4.83 ± 0.55
Mean clinical score (DSS-induced colitis; 30 mg/kg p.o. daily): 1.10 ± 0.49
Group Mean Inflammation Histological Score (DSS-induced colitis; 100 mg/kg p.o. daily): 6.82 ± 0.85
Group Mean Injury Histological Score (DSS-induced colitis; 100 mg/kg p.o. daily): 5.66 ± 0.87
Mean clinical score (DSS-induced colitis; 100 mg/kg p.o. daily): 1.00 ± 0.35
clinical and histological score vs untreated mice (DSS-induced colitis; daily administration): statistically significant decrease in clinical and histological score
Total Inflammatory Cells in BAL ([3]; 30 mg/kg p.o.): 2.8 × 10^6 ± 1.3 × 10^6
Total Inflammatory Cells in BAL ([3]; 100 mg/kg p.o.): 2.2 × 10^6 ± 0.3 × 10^6
total inflammatory cells in the lungs vs untreated mice ([3]; administration after ovalbumin challenge): statistically significant decrease in total inflammatory cells in the lungs
IC50 [4]: 4 µM
inhibition of the LPS-induced serum TNFα levels in vivo (LPS-induced serum TNFα; 10 mg/kg): 27-63%
inhibition of the LPS-induced serum TNFα levels in vivo (LPS-induced serum TNFα; 30 mg/kg): 53-89%
inhibition of the LPS-induced serum TNFα levels in vivo (LPS-induced serum TNFα; 50 mg/kg): 83-92%
